According to PubChem BioAssay (NCI):
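Results reflect a 48-hour exposure of cells in 96-well plates to compound at five concentrations. GI50 = concentration required for 50% inhibition of growth. TGI marks complete inhibition of growth.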

Columns and labels:
Test in all cases: NCI tumour cell line growth inhibition, 48 h
[1] = test system: 786-0 renal
[2] = test system: A498 renal
[3] = test system: A549 NSCLC
[4] = test system: ACHN renal
[5] = test system: BT-549 breast
[6] = test system: CAKI-1 renal
[7] = test system: CCRF-CEM leukemia
[8] = test system: DU-145 prostate
[9] = test system: EKVX NSCLC
[10] = test system: HCC-2998 colon
[11] = test system: HCT-116 colon
[12] = test system: HCT-15 colon
[13] = test system: HL-60(TB) leukemia
[14] = test system: HOP-62 NSCLC
[15] = test system: HOP-92 NSCLC
[16] = test system: HS 578T breast
[17] = test system: HT29 colon
[18] = test system: IGROV1 ovarian
[19] = test system: K-562 leukemia
[20] = test system: KM12 colon
[21] = test system: LOX IMVI melanoma
[22] = test system: M14 melanoma
[23] = test system: MALME-3M melanoma
[24] = test system: MCF7 breast
[25] = test system: MDA-MB-231 breast
[26] = test system: MDA-MB-435
[27] = test system: MOLT-4 leukemia
[28] = test system: NCI-H226 lung
[29] = test system: NCI-H23 lung
[30] = test system: NCI-H460 lung
[31] = test system: NCI-H522 lung
[32] = test system: NCI/ADR-RES ovarian
[33] = test system: OVCAR-3 ovarian
[34] = test system: OVCAR-4 ovarian
[35] = test system: OVCAR-5 ovarian
[36] = test system: OVCAR-8 ovarian
[37] = test system: PC-3 prostate
[38] = test system: RPMI-8226 leukemia
[39] = test system: RXF 393 renal
[40] = test system: SF-268 CNS
[41] = test system: SF-295 CNS
[42] = test system: SF-539 CNS
[43] = test system: SK-MEL-2 melanoma
[44] = test system: SK-MEL-28 melanoma
[45] = test system: SK-MEL-5 melanoma
[46] = test system: SK-OV-3 ovarian
[47] = test system: SN12C renal
[48] = test system: SNB-19 CNS
[49] = test system: SNB-75 CNS
[50] = test system: SR leukemia
[51] = test system: SW-620 colon
[52] = test system: T-47D breast
[53] = test system: TK-10 renal
[54] = test system: U251 CNS
[55] = test system: UACC-257 melanoma
[56] = test system: UACC-62 melanoma
[57] = test system: UO-31 renal

## CC(=O)c1c(Nc2ccc(F)c(F)c2F)[nH]c2c(F)cc(F)cc2c1=O
[1]
  GI50: 368 nM
  TGI: 15100 nM
[2]
  GI50: 206 nM
  TGI: 575 nM
[3]
  GI50: 382 nM
  TGI: > 41800 nM
[4]
  GI50: 296 nM
  TGI: > 26300 nM
[5]
  GI50: 335 nM
  TGI: 5760 nM
[6]
  GI50: 218 nM
  TGI: 1610 nM
[7]
  GI50: 368 nM
  TGI: > 100000 nM
[8]
  GI50: 403 nM
  TGI: > 100000 nM
[9]
  GI50: 303 nM
  TGI: > 40400 nM
[10]
  GI50: 378 nM
  TGI: 13600 nM
[11]
  GI50: 291 nM
  TGI: 5570 nM
[12]
  GI50: 331 nM
  TGI: 1730 nM
[13]
  GI50: 372 nM
[14]
  GI50: 335 nM
  TGI: 8180 nM
[15]
  GI50: 116 nM
  TGI: 466 nM
[16]
  GI50: 293 nM
  TGI: 8690 nM
[17]
  GI50: 356 nM
  TGI: 17500 nM
[18]
  GI50: 396 nM
  TGI: > 47400 nM
[19]
  GI50: 347 nM
  TGI: > 100000 nM
[20]
  GI50: 342 nM
  TGI: 5570 nM
[21]
  GI50: 333 nM
  TGI: 11300 nM
[22]
  GI50: 352 nM
  TGI: 4060 nM
[23]
  GI50: 207 nM
  TGI: 643 nM
[24]
  GI50: 283 nM
  TGI: 13500 nM
[25]
  GI50: 285 nM
  TGI: 1770 nM
[26]
  GI50: 365 nM
  TGI: 7260 nM
[27]
  GI50: 425 nM
[28]
  GI50: 297 nM
  TGI: 1870 nM
[29]
  GI50: 286 nM
  TGI: 4410 nM
[30]
  GI50: 331 nM
  TGI: 11200 nM
[31]
  GI50: 285 nM
  TGI: 16600 nM
[32]
  GI50: 322 nM
  TGI: 34500 nM
[33]
  GI50: 311 nM
  TGI: 11600 nM
[34]
  GI50: 320 nM
  TGI: > 100000 nM
[35]
  GI50: 552 nM
  TGI: 25400 nM
[36]
  GI50: 365 nM
  TGI: > 100000 nM
[37]
  GI50: 252 nM
  TGI: 1330 nM
[38]
  GI50: 206 nM
  TGI: 720 nM
[39]
  GI50: 300 nM
  TGI: 2410 nM
[40]
  GI50: 341 nM
  TGI: 43100 nM
[41]
  GI50: 308 nM
  TGI: 1500 nM
[42]
  GI50: 322 nM
  TGI: 4330 nM
[43]
  GI50: 322 nM
  TGI: 1350 nM
[44]
  GI50: 356 nM
  TGI: 3570 nM
[45]
  GI50: 188 nM
  TGI: 431 nM
[46]
  GI50: 297 nM
  TGI: 3240 nM
[47]
  GI50: 277 nM
  TGI: 3450 nM
[48]
  GI50: 354 nM
  TGI: > 70200 nM
[49]
  GI50: 289 nM
  TGI: 8520 nM
[50]
  GI50: 450 nM
  TGI: > 45900 nM
[51]
  GI50: 346 nM
  TGI: 18700 nM
[52]
  GI50: 250 nM
[53]
  GI50: 503 nM
  TGI: 47800 nM
[54]
  GI50: 343 nM
  TGI: 20100 nM
[55]
  GI50: 338 nM
  TGI: 10000 nM
[56]
  GI50: 233 nM
  TGI: 836 nM
[57]
  GI50: 123 nM
  TGI: 742 nM
